{"source": "paper PMC6158189", "about": "“A pharmacological probe identifies cystathionine β-synthase as a new negative regulator for ferroptosis” (Cell Death & Disease, 2018)", "format_in_all_cases": "cell-based", "key": {"HEK293T cells": {"system": "HEK293T cells", "assay": "cell cycle distribution (propidium iodide, flow cytometry)", "settings": "3 μM, 12 h", "method": "Fig. 4 CH004 arrests the cell cycle at the S phase. a CH004 reduces the cell viability of HEK293T and HepG2 cells. HEK293T or HepG2 cells were treated with indicated concentrations of CH004 for 24 h before the cell number was analyzed using the CellTiter96® Aqueous One Solution Cell Proliferation Assay (Promega, Materials and Methods). The means at each concentration of one representative experiment are shown as percentages of DMSO (control, 100%). Means ± SDs (n = 3). b Overexpression of hCBS or knock-down of hCBS counteracts the growth inhibition exerted by CH004 in HEK293T cells. Indicated HEK293T stable cell lines were treated with the CH004 or DMSO for 24 h. Then, the cell viability was quantified with the CellTiter 96® Aqueous One Solution Cell Proliferation Assay under the standard protocol (Promega). […] The efficacy for CBS overexpression and knock-down in HEK293T cells was determined by Western blotting using an anti-CBS antibody (3E1, 1:2000; Abnova). c CH004 induces cell death in HEK293T and HepG2 cells. […] HEK293T cells were incubated with indicated compounds for 12 h, and the DNA content was quantified with propidium iodide to analyze the cell cycle distribution by flow cytometry (e). The cell cycle distributions for HEK293T-shNT and HEK293T-shCBS cells were accordingly analyzed and are shown in f. […]"}, "293T-shNT cells": {"system": "293T-shNT cells", "assay": "cell viability of stable HEK293T lines", "settings": "Homo sapiens, HEK-293T, 24 h", "method": "(§1) Fig. 4 CH004 arrests the cell cycle at the S phase. a CH004 reduces the cell viability of HEK293T and HepG2 cells. HEK293T or HepG2 cells were treated with indicated concentrations of CH004 for 24 h before the cell number was analyzed using the CellTiter96® Aqueous One Solution Cell Proliferation Assay (Promega, Materials and Methods). The means at each concentration of one representative experiment are shown as percentages of DMSO (control, 100%). Means ± SDs (n = 3). b Overexpression of hCBS or knock-down of hCBS counteracts the growth inhibition exerted by CH004 in HEK293T cells. Indicated HEK293T stable cell lines were treated with the CH004 or DMSO for 24 h. Then, the cell viability was quantified with the CellTiter 96® Aqueous One Solution Cell Proliferation Assay under the standard protocol (Promega). The means at each concentration are shown as percentages of their respective DMSO controls (100%). Means ± SDs (n = 3). The efficacy for CBS overexpression and knock-down in HEK293T cells was determined by Western blotting using an anti-CBS antibody (3E1, 1:2000; Abnova). c CH004 induces cell death in HEK293T and HepG2 cells. […] The means of percentages of dead cells (DMSO, 100%) from three independent samples are shown in d. Means ± SDs (n = 3). e, f Pharmacological inhibition or genetic knock-down of hCBS in HEK293T cells arrests the cell cycle at S phase. HEK293T cells were incubated with indicated compounds for 12 h, and the DNA content was quantified with propidium iodide to analyze the cell cycle distribution by flow cytometry (e). The cell cycle distributions for HEK293T-shNT and HEK293T-shCBS cells were accordingly analyzed and are shown in f. One representative diagram is shown for each condition. The mean percentages of various cell phases from three independent samples are shown in the respective right panels. Means ± SDs (n = 3). Statistical analyses were performed by two-way ANOVA with Bonferroni post-tests. *p < 0.05; **p < 0.01; ***p < 0.001.\n(§2) HEK293T cells stably expressing hCBS-FL WT or Q222A mutant were generated using lentiviral particles carrying pCDH-hCBS or pCDH empty vector (EV) and pPACK Packaging Plasmid Mix (SBI, Mountain View, CA, USA) according to the manufacturer’s instructions. Similarly, CBS-knock-down HEK293T cells or control cells were obtained using the miRzip lentiviral vector according to the manufacturer’s protocol (SBI, MZIPxxxPA-1). The infected cells were then incubated with 2.5 μg/mL puromycin for two weeks until stable clones were obtained. The target sequence of shRNA-CBS was 5′-GTAGTTCCGCACTGAGTCG-3′, which has been used previously. The scramble control was 5′-TCCGCAGGTATGCACGCGT-3′.\n(§3) Figure S12. CH004 inhibits the proliferation of cells via specifically targeting hCBS. (A-B) Dose-dependent curves of CH004 on the cell viability of CBS-stably-expressed HEK293T (A) or CBS-knockdown cells (B). Percentages of cell viability of CH004 obtained in Figure 4b were fitted to the non-linear equation using GraphPad Prism 5 to get the IC50 values of CH004 in respective cell lines (●, 293T-CBS WT cells; ○, 293T-EV; ▲, 293T-shCBS; △, 293T-shNT). Means ± SDs (n=3). […] HEK293T cells stably expressing of the lentiviral shRNA targeting CBS (shCBS) or control shRNA (shNT) were seeded at the density of ~ 3,000 cells per well in 96-well plates and the cell images in the bright field were acquired at indicated times by Image Xpress Micro® XLS (Molecular Devices, Sunnyvale, CA) under 10 × objective lens. Representative images of two independent experiments (n = 6 for each experiment) are shown in C. The cell numbers of images under 4 × objective lens of one representative experiment were calculated by Image Xpress Software and the data is shown in D. Means ± SDs (n=6). […] HepG2 cells were seeded in a 96-well plate at a density of 20000 cells per well and cultured for 24 h before treatment with indicated concentrations of CH004 for another 24 h. […]"}, "293T-EV cells": {"system": "293T-EV cells", "assay": "cell viability of stable HEK293T lines", "settings": "Homo sapiens, HEK-293T, 24 h", "method": "as §1, §2, §3"}, "293T-CBS WT cells": {"system": "293T-CBS WT cells", "assay": "cell viability of stable HEK293T lines", "method": "as §1, §2, §3"}, "293T-shCBS cells": {"system": "293T-shCBS cells", "assay": "cell viability of stable HEK293T lines", "method": "as §1, §2, §3"}}, "data": [{"smiles": "Cn1nc(Cc2ccccc2)nc2c(=O)n(C)c(=O)nc1-2", "note": "[CH004, 3-benzyl-1,6-dimethylpyrimido[5,4-e][1,2,4]triazine-5,7(1H,6H)-dione]", "values": [{"measurement": "increase in cell number in the S phase", "setting": "HEK293T cells", "result": "more than 20%"}, {"measurement": "IC50", "setting": "293T-shNT cells", "result": "2.6 ± 0.5", "unit": "µM"}, {"measurement": "IC50", "setting": "293T-EV cells", "result": "9.6 ± 1.6", "unit": "µM"}, {"measurement": "counteraction of inhibitory effect by overexpression of CBS", "setting": "293T-CBS WT cells; 293T-CBS WT vs 293T-EV", "result": 3, "unit": "fold"}, {"measurement": "IC50", "setting": "293T-CBS WT cells; Homo sapiens, HEK-293T, 24 h", "result": "35.5 ± 1.2", "unit": "µM"}, {"measurement": "increase of IC50 by CBS knock-down", "setting": "293T-shCBS cells; 293T-shCBS vs 293T-shNT", "result": 15, "unit": "fold"}, {"measurement": "IC50", "setting": "293T-shCBS cells; Homo sapiens, HEK-293T, 24 h", "result": "43.2 ± 8.3", "unit": "µM"}]}]}
